Measurements from patent publication US12421252B2, “Spiro (isobenzofuranazetidine) compounds for the treatment of autoimmune disease” (Hoffmann-La Roche Inc., priority 2020, dated 2025).
pIC50: −log10 of the molar value.

How the values were obtained:
hERG channel = target: T1, hERG channel (Homo sapiens, UniProt Q12809); test: hERG channel inhibition assay (patch-clamp, CHO hERG cells); assay type: cell-based; details: for safety window (hERG IC20/TLR7/8/9 IC50, in words): compared to the compounds of this invention; for hERG IC20/TLR7 IC50 / hERG IC20/TLR9 IC50: safety ratio
T1 construct: expressed in transfected cells
T1 sequence (Q12809 whole entry): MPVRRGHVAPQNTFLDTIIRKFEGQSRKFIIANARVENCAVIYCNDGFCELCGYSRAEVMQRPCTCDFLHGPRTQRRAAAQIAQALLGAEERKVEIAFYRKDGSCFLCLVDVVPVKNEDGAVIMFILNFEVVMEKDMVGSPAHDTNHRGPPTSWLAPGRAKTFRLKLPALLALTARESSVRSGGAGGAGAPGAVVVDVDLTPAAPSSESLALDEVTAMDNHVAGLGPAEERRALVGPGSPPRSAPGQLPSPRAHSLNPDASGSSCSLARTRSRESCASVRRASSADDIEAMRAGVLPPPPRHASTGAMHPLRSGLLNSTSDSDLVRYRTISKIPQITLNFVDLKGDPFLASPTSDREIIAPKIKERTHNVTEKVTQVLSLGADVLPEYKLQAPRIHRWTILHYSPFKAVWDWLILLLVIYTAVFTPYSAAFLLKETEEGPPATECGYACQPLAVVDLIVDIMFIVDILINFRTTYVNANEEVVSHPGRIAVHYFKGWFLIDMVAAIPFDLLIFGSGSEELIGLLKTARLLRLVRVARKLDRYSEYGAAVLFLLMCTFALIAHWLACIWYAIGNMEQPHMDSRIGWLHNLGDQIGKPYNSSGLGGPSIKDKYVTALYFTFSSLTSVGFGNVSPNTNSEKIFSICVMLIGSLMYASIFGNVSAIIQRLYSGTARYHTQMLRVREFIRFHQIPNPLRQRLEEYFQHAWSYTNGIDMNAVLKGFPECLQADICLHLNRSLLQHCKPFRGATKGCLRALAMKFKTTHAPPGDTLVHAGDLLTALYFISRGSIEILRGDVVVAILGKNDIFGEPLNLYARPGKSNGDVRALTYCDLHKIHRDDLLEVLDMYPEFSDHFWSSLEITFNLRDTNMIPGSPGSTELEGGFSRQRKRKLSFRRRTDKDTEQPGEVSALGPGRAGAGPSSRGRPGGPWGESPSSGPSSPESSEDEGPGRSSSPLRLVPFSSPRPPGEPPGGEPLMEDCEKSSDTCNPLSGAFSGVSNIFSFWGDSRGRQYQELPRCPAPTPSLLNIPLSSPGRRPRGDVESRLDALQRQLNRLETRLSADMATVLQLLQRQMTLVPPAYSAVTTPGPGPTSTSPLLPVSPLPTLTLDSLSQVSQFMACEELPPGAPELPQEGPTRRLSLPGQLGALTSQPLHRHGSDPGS
Method: hERG Channel Inhibition Assay:
The hERG K+ channels were cloned in humans and stably expressed in a CHO (Chinese hamster ovary) cell line. CHOhERG cells were used for patch-clamp (voltage-clamp, whole-cell) experiments. Cells were stimulated by a voltage pattern to activate hERG channels and conduct IKhERG Currents (rapid delayed outward rectifier potassium current of the hERG channel). After the cells were stabilized for a few minutes, the amplitude and kinetics of IKhERG were recorded at a stimulation frequency of 0.1 Hz, (6 bpm). Thereafter, the test compound was added to the preparation at increasing concentrations. For each concentration, an attempt was made to reach a steady-state effect, usually, this was achieved within 3-10 min at which time the next highest concentration was applied. The amplitude and kinetics of IKhERG are recorded in each concentration of the drug which were compared to the control values (taken as 100%). (references: Redfern W S, Carlsson L, Davis A S, Lynch W G, MacKenzie I, Palethorpe S, Siegl P K, Strang I, Sullivan A T, Wallis R, Camm A J, Hammond T G. 2003; Relationships between preclinical cardiac electrophysiology, clinical QT interval prolongation and torsade de pointes for a broad range of drugs: evidence for a provisional safety margin in drug development. Cardiovasc. Res. 58:32-45, Sanguinetti M C, Tristani-Firouzi M. 2006; hERG potassium channels and cardiac arrhythmia. Nature 440:463-469, Webster R, Leishman D, Walker D. 2002; Towards a drug concentration effect relationship for QT prolongation and torsades de pointes. Curr. Opin. Drug Discov. Devel. 5:116-26).

hTLR9 = target: T2, hTLR9 (Homo sapiens, UniProt Q9NR96); design: host or cells: HEK; details: data disclosed in US20150105370; read-out: HEK/hTLR9 IC50; cited from earlier work
T2 sequence (Q9NR96 26-1032): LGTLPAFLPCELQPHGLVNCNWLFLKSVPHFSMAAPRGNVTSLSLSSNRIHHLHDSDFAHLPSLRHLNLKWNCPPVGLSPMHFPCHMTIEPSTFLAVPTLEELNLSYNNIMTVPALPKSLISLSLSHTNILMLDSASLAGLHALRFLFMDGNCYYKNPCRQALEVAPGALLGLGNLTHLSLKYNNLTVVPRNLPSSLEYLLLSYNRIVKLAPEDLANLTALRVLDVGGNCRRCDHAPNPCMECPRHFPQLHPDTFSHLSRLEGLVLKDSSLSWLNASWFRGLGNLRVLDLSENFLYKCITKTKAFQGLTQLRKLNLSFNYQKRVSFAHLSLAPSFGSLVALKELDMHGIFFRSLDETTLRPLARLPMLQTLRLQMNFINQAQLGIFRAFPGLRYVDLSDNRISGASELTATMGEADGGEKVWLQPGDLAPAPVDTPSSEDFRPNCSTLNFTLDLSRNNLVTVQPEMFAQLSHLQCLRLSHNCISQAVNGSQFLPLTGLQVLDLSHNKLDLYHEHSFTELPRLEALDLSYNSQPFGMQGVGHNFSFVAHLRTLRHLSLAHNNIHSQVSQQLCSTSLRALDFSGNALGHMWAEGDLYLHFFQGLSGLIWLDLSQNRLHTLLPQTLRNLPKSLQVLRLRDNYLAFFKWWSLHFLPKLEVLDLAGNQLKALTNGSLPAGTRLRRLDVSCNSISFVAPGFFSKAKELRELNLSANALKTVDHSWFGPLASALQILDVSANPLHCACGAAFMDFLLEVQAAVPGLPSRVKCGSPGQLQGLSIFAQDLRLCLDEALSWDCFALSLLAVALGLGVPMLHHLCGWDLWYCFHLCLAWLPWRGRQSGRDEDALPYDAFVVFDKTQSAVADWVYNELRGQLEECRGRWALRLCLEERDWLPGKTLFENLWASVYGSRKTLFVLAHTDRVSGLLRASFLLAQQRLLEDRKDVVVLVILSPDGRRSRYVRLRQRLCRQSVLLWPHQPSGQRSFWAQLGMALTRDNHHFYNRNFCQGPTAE

CYP2C9 = target: T3, CYP2C9 (Homo sapiens, UniProt P11712); test: CYP inhibition assay in human liver microsome, CYP2C9; assay type: in vitro ADME; details: percentage inhibition, substrate Diclofenac 5 μM, <0: not or weak inhibitor
T3 construct: tissue BD-Gentest 452117; host or cells: human liver microsomes
T3 sequence (P11712 whole entry): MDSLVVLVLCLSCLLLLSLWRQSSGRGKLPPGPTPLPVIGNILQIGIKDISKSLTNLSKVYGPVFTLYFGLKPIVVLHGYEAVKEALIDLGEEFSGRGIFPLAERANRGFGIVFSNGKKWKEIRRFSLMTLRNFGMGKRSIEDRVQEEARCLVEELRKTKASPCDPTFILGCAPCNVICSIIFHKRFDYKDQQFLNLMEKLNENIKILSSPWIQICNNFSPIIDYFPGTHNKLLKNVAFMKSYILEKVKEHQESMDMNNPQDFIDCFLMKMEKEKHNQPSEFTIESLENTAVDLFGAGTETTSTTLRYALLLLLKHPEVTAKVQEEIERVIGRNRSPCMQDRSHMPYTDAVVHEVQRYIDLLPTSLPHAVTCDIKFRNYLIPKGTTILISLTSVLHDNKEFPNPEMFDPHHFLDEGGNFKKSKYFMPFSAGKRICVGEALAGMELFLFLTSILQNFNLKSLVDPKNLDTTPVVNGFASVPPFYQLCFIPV
Method: (§1) This is a high throughput screening assay used for assessment of reversible inhibition of CYP2C9, CYP2D6, and CYP3A4 activity of test compounds in human liver microsome (HLM) in early discovery stage.
(§2) Procedure 10 mM DMSO stock solutions of test compounds were diluted in DMSO to generate 2 mM intermediate stock solution. 250 nL of intermediate stock solution were transferred in duplicate into 3 separate 384 well microtitre plates (assay-ready plates). A mixture of HLM and each substrate was made up. 45 μL of HLM substrate mix was then transferred to each well of an assay ready plate and mixed. The negative (solvent) and positive controls (standard inhibitor for each CYP) were included in each assay ready plate. The assay ready plate was warmed to 37° C. in an incubator over 10 minutes. 5 μL pre-warmed NADPH regenerating system was added to each incubation well to start the reaction. Final incubation volume was 50 μL. The assay plate then was placed back in the 37° C. incubator. After incubation (10 minutes for CYP2D6) for 5 minutes, incubates were quenched by addition of 50 μL 100% acetonitrile containing internal standards (400 ng/mL 13C6-4′-OH-Diclofenac, 20 ng/mL D3-Dextrorphan and 20 ng/mL D4-1′OH-Midazolam). The supernatants were collected for RapidFire/MS/MS analysis.
(§3) RapidFire online solid phase extraction/sample injection system (Agilent) coupled with API4000 triple quadrupole mass spectrometer (AB Sciex) were used for sample analysis. The mobile phase composed of acetonitrile and water supplemented with 0.1% formic acid. A C4 solid phase extraction cartridge is used for sample separation. MS detection is achieved in positive ion MRM mode.
(§4) Data analysis Peak areas for substrate, metabolite and internal standard are determined using the RapidFire integrator software (version 3.6.12009.12296). Peak area ratios (PAR) of metabolite and internal standard (stable-labelled metabolite) are then calculated. The measurement window for each experiment is then defined: PAR (0% activity)=average PAR for all incubations containing concentrated inhibitor; Par (100% activity)=average PAR for all incubations containing no inhibitor (DMSO controls); % Activity (test inhibitor)=[PAR (test inhibitor)-PAR (0% activity)]/[PAR (100% activity)-PAR (0% activity)]; % Inhibition (test inhibitor)=100-% Activity (test inhibitor).

CYP3A4 = target: T4, CYP3A4 (Homo sapiens, UniProt P08684); test: CYP inhibition assay in human liver microsome, CYP3A4; assay type: in vitro ADME; details: percentage inhibition, substrate Midazolam 5 μM, <0: not or weak inhibitor
T4 construct: tissue BD-Gentest 452117; host or cells: human liver microsomes
T4 sequence (P08684 whole entry): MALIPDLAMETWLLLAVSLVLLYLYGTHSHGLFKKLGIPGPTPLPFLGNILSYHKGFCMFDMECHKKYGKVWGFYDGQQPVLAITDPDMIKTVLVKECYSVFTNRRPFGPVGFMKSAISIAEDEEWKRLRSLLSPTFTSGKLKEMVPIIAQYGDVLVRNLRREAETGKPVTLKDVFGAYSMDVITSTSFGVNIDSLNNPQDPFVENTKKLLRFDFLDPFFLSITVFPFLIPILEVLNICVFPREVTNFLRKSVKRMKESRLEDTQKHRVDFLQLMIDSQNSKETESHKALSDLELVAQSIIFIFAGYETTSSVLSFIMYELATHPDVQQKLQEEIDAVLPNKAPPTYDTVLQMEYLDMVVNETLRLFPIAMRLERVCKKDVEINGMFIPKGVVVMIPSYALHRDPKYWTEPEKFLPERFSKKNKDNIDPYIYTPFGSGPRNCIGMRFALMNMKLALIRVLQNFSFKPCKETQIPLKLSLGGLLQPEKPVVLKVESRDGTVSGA
Method: as §1, §2, §3, §4

CYP2D6 = target: T5, CYP2D6 (Homo sapiens, UniProt P10635); test: CYP inhibition assay in human liver microsome, CYP2D6; assay type: in vitro ADME; details: percentage inhibition, substrate Dextromethorphan 5 μM, <0: not or weak inhibitor
T5 construct: tissue BD-Gentest 452117; host or cells: human liver microsomes
T5 sequence (P10635 whole entry): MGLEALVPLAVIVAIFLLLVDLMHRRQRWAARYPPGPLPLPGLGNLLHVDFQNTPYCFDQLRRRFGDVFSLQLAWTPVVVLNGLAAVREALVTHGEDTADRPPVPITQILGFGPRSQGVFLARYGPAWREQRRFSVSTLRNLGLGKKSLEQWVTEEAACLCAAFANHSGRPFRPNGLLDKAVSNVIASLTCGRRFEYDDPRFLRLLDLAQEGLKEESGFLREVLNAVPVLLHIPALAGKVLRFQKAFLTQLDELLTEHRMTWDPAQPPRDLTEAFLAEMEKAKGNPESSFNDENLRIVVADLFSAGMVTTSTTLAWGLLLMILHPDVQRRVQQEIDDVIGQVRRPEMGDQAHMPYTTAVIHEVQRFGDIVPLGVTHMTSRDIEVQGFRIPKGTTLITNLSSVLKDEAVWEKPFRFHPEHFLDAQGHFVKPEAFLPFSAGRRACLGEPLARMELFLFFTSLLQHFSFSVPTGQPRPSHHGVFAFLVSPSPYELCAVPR
Method: as §1, §2, §3, §4

CYP (%) 2C9 (CYP2C9) [%]	CYP (%) 3A4 (CYP3A4) [%]	CYP (%) 2D6 (CYP2D6) [%]	SMILES	safety window (hERG IC20/TLR7/8/9 IC50, in words) (hERG channel)	hERG IC20/TLR7 IC50 (hERG channel)	hERG IC20/TLR9 IC50 (hERG channel)	pIC50 (hTLR9)
			C[C@@H]1CN(c2ccc(C#N)c3ncccc23)C[C@H](CN2CCN(c3ccccc3)CC2)O1 [ER-887258, reference compound]	much narrower safety window	8.1	0.3	< 5.70
			C[C@@H]1CN(c2ccc(C#N)c3ncccc23)C[C@H](CN2CCN(c3ccccn3)CC2)O1 [ER-888285, reference compound]	much narrower safety window	8.4	0.5	< 5.70
29.5	5.5	52.5	C[C@@H]1CN(c2ccc(C#N)c3ncccc23)C[C@H](CN2CCN(c3ccncc3)CC2)O1 [ER-888286, reference compound]	much narrower safety window	0.3	0.2	< 5.70
